# Source: US8278345B2, “Inhibitors of glutaminyl cyclase” (Probiodrug AG, priority 2006, dated 2012)
# pIC50: −log10 of the molar value.
# Molecular target: hQC (Homo sapiens, UniProt Q16769)
# Assay: Inhibitor assay for glutaminyl cyclase activity (fluorometric, H-Gln-βNA / H-Gln-AMC)
# Format: biochemical
# Settings: read-out: IC50
# In short: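 Ki values came from fitting progress curves to a competitive inhibition model; rapid screens used 4 mM inhibitor with substrate at KM. QC activity was read at 30 °C via auxiliary pyroglutamyl aminopeptidase releasing βNA (0.2 mM H-Gln-βNA, 0.2 M Tris pH 8.0, 20 mM EDTA) or AMC (0.05 M Tris pH 8.0, 5 mM EDTA).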
# Sequence of hQC (Q16769 29-361): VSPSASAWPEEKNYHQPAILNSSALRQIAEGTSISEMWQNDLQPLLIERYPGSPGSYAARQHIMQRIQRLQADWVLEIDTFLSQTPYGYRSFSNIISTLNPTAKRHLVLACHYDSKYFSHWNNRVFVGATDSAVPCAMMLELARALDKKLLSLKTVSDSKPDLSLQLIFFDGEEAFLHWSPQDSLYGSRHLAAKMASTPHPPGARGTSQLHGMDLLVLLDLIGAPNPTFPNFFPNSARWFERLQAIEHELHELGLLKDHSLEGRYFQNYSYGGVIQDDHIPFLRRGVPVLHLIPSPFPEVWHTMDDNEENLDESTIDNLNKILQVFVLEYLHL
row,SMILES,pIC50
1,"O=C1C(O)=C(c2ccccc2)C(c2ccc(CO)o2)N1CCCn1ccnc1 (stereo not drawn) [Compound 91, 3-Hydroxy-5-(5-hydroxymethyl-furan-2-yl)-1-(3-imidazol-1-yl-propyl)-4-phenyl-1,5-dihydro-pyrrol-2-one]",5.89
2,"CC(=O)C1=C(O)C(=O)N(c2ccc3[nH]cnc3c2)C1c1ccco1 (stereo not drawn) [Compound 366, 4-Acetyl-1-(1H-benzoimidazol-5-yl)-5-furan-2-yl-3-hydroxy-1,5-dihydro-pyrrol-2-one]",5.62
3,"O=C1C(O)=C(c2ccc(O)cc2)C(c2ccc3cccc(O)c3n2)N1c1ccc2[nH]cnc2c1 (stereo not drawn) [Compound 391, 1-(1H-Benzoimidazol-5-yl)-3-hydroxy-4-(4-hydroxy-phenyl)-5-(8-hydroxy-quinolin-2-yl)-1,5-dihydro-pyrrol-2-one]",7.40
4,"CCCCCC1=C(O)C(=O)N(CCCn2ccnc2)C1c1ccccc1O (stereo not drawn) [Compound 194, 3-Hydroxy-5-(2-hydroxy-phenyl)-1-(3-imidazol-1-yl-propyl)-4-pentyl-1,5-dihydro-pyrrol-2-one]",7.40
5,"Cc1ccc(C2C(c3c[nH]c4ccccc34)=C(O)C(=O)N2CCCn2ccnc2)o1 (stereo not drawn) [Compound 119, 3-Hydroxy-1-(3-imidazol-1-yl-propyl)-4-(1H-indol-3-yl)-5-(5-methyl-furan-2-yl)-1,5-dihydro-pyrrol-2-one]",6.40
6,"Cc1ccc2c(C3C(c4ccc(O)cc4)=C(O)C(=O)N3CCCn3ccnc3)c[nH]c2c1 (stereo not drawn) [Compound 165, 3-Hydroxy-4-(4-hydroxy-phenyl)-1-(3-imidazol-1-yl-propyl)-5-(6-methyl-1H-indol-3-yl)-1,5-dihydro-pyrrol-2-one]",7.40
7,"O=C(C1=C(O)C(=O)N(c2ccc3[nH]cnc3c2)C1c1cccc(F)c1)C1CC1 (stereo not drawn) [Compound 370, 1-(1H-Benzoimidazol-5-yl)-4-cyclopropanecarbonyl-5-(3-fluoro-phenyl)-3-hydroxy-1,5-dihydro-pyrrol-2-one]",5.11
8,"CC1=C(O)C(=O)N(CCCn2ccnc2)C1c1c(O)ccc2ccccc12 (stereo not drawn) [Compound 42, 3-Hydroxy-5-(2-hydroxy-naphthalen-1-yl)-1-(3-imidazol-1-yl-propyl)-4-methyl-1,5-dihydro-pyrrol-2-one]",5.66
9,"CC(C)C1=C(O)C(=O)N(CCCn2ccnc2)C1c1ccc2[nH]ccc2c1 (stereo not drawn) [Compound 58, 3-Hydroxy-1-(3-imidazol-1-yl-propyl)-5-(1H-indol-5-yl)-4-isopropyl-1,5-dihydro-pyrrol-2-one]",5.51

# Next, values leading:
row,pIC50,SMILES
1,5.86,"Cc1cccc(C2C(c3ccc(O)cc3)=C(O)C(=O)N2c2ccc3[nH]cnc3c2)c1 (stereo not drawn) [Compound 429, 1-(1H-Benzoimidazol-5-yl)-3-hydroxy-4-(4-hydroxy-phenyl)-5-m-tolyl-1,5-dihydro-pyrrol-2-one]"
2,6.66,"CC1=C(O)C(=O)N(c2ccc3[nH]cnc3c2)C1c1cc(F)cc(F)c1F (stereo not drawn) [Compound 407, 1-(1H-Benzoimidazol-5-yl)-3-hydroxy-4-methyl-5-(2,3,5-trifluoro-phenyl)-1,5-dihydro-pyrrol-2-one]"
3,5.86,"CC1=C(O)C(=O)N(c2ccc3[nH]cnc3c2)C1c1ccc(C(=O)O)o1 (stereo not drawn) [Compound 399, 5-[1-(1H-Benzoimidazol-5-yl)-4-hydroxy-3-methyl-5-oxo-2,5-dihydro-1H-pyrrol-2-yl]-furan-2-carboxylic acid]"
4,5.35,"CC(C)(C)C(=O)C1=C(O)C(=O)N(c2ccc3[nH]cnc3c2)C1c1cc2ccccc2nc1Cl (stereo not drawn) [Compound 392, 1-(1H-Benzoimidazol-5-yl)-5-(2-chloro-quinolin-3-yl)-4-(2,2-dimethyl-propionyl)-3-hydroxy-1,5-dihydro-pyrrol-2-one]"
5,5.04,"CC1=C(O)C(=O)N(c2ccc3[nH]cnc3c2)C1c1cc(C)ccc1C (stereo not drawn) [Compound 417, 1-(1H-Benzoimidazol-5-yl)-5-(2,5-dimethyl-phenyl)-3-hydroxy-4-methyl-1,5-dihydro-pyrrol-2-one]"
6,8.40,O=C1C(O)=C(c2c[nH]c3ccccc23)C(c2ccc3nsnc3c2)N1c1ccc2[nH]cnc2c1 (stereo not drawn) [Compound 457]
